Reference: patent US10857112B2, “Small molecule inhibitors of RNA binding motif (RBM) proteins for the treatment of acute cellular injury” (University of Pittsburgh—Of the Commonwealth System of …, priority 2012, dated 2020)

Key:
[1] = test system: C57BL6 mice, severe CCI brain injury; assay: Controlled cortical impact (TBI) injury, hippocampal volume; assay type: in vivo
Description: AQ2S was prepared in 2% DMSO in PBS (i.e. vehicle). C57BL6 mice were administered a severe CCI brain injury. Severe brain trauma was induced by a pneumatic impactor device that delivers a defined cortical injury (impact depth, 1.6 mm; impact velocity, 5 m/s). 15 minutes after injury animals were given a 5 μL intracerebroventricular injection with either vehicle (n=7) or 500 μM AQ2S (n=7). The 5 μL injection volume was delivered at a rate of 0.5 μL/minute. […] A second vehicle or AQ2S injection was administered 24 hours after injury. […] 3 days after injury animals were sacrificed, perfused with a fixative, brains sectioned, and stained with hematoxylin and eosin (H&E). Images were captured using a light microscope and camera.
Mice were given surgical/treatment protocols and hippocampal tissue analyzed 3 days later. […] (D) Left (injured) and right (non-injured) hippocampal volumes were quantified for each mouse; sham (n=5), vehicle CCI injury (n=7), and AQ2S CCI injury (n=7). FIG. 23D show left hippocampal volumes (expressed as % of uninjured right hippocampus).

RBM5 = target: T1, RBM5 (Homo sapiens, UniProt P52756); details: cited from earlier work
T1 sequence (P52756 181-210 limits assumed): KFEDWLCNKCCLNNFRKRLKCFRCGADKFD

[2] = test system: Human derived myocardial heart cells; assay: STS injury in human heart cells, viability (CellTiter Blue); assay type: cell-based; details: 24 hour co-treatment; 500 nM or 1 μM STS, 125 μM AQ2S
Description: Human derived myocardial heart cells were seeded onto 96-well plates. 24 hours later cells were injured with STS.
Optimal cell death conditions were established in heart cells. Heart cells were treated with STS at increasing doses for 24 hours (FIG. 28A). […] Heart cells were treated with 500 nM STS+/−125 μM AQ2S or 1 μM STS+/−125 μM AQ2S for 24 hours. Cell viability was measured 24 hours later and expressed as relative fluorescent units (RFU). […] Data were analyzed by ANOVA (p<0.0001); Fisher LSD post-hoc test. * indicates p<0.05. Graphs show Mean+SEM.

[3] = test system: primary rat neurons, astrocytes, and cerebral endothelial cells; details: cited from earlier work
[4] = target: T2, recombinant active caspase-3 (Homo sapiens, UniProt P42574); assay: In vitro cell-free caspase-3 drug screening assay (DEVD-AFC); assay type: biochemical
T2 construct: The reaction mixture was combined with recombinant active caspase-3 and a DEVD-AFC probe; purchased PromoKine (Heidelberg, Germany)
T2 sequence (P42574 29-175 limits assumed): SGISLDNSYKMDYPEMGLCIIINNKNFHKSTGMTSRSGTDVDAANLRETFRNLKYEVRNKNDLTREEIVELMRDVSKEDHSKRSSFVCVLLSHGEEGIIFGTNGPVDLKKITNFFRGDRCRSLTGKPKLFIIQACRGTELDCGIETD
T2 sequence (P42574 176-277 limits assumed): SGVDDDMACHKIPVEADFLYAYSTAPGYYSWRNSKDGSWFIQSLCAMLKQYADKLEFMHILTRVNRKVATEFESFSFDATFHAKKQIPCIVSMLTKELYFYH
Description: An in vitro caspase drug screening kit was purchased from PromoKine (Heidelberg, Germany), and used according to the manufacturer's instructions. Briefly, all drugs were dissolved in DMSO and diluted in double-distilled water to desired concentration. The reaction mixture was combined with recombinant active caspase-3 and a DEVD-AFC probe. Active caspase-3 cleaves the DEVD-recognition sequence and releases fluorescent AFC. The amount of AFC detected is a measure of caspase-3 activity. Reactions were prepared in black-walled 96-well plates, incubated at 37° C., and AFC release measured with an AFC filter (Ex: 405 nm, Em: 495-505 nM) on a GLOMax-Multi Microplate Reader (Promega).

[5] = test system: primary rat cortical neurons; assay: Glutamate excitotoxic injury, neuron viability; assay type: cell-based; details: 5 μM glutamate 5 minute; post-injury 125 μM; 24 hours
Description: Drugs (AQ2S and MK801) were dissolved in 100% DMSO (vehicle). Rat cortical neurons were isolated from E17 embryos, and seeded onto 96-well plates at a density of 1.5×10^5/well. At day-in-vitro 8 (D.I.V. 8) culture maintenance media was replaced with treatment media (Modified Eagles Buffered Solution) without or with 5 μM Glutamate. After a 5 minute injury in treatment solution, cells were returned to normal culture maintenance media conditions (Neurobasal/B27 supplement) with either: 1) DMSO, 2) 125 μM AQ2S or 3) MK801; MK801 is an NMDA receptor channel blocker and classic neuroprotectant in this injury paradigm. Neuron viability was measured 24 hours post-injury by incubation with CellTiter Blue reagent (PROMEGA) for 2 hours. CellTiter Blue is metabolized into a fluorescent reagent only in living cells. The level of fluorescence (expressed as relative fluorescent units; RFU) was measured on a plate reader (PROMEGA).
Primary rat cortical neurons were grown onto 96-well plates. Neurons were treated with or without 5 μM glutamate. Cells were returned to regular growth media with DMSO, 125 μM AQ2S, or MK801 and viability measured 24 hours later (expressed as relative fluorescent units; RFU). […] Injury (n=7), Glut+AQ2S (n=7) and Glut+MK-801 (n=6). White bar indicated absence of glutamate injury. […] Data were analyzed by ANOVA (p<0.0001); Fisher LSD post-hoc test. * indicates p<0.05. […]

[6] = test system: primary rat cortical neurons; assay: Ischemia (OGD) injury, neuron viability; assay type: cell-based; details: 1 hour OGD; 75 μM during and after injury; 24 hours
Description: AQ2S was dissolved in 100% DMSO (vehicle). Rat cortical neurons were isolated from E17 embryos, and seeded onto 96-well plates at a density of 7.5×10^4/well. At D.I.V. 10-11 culture maintenance media was replaced with treatment media (Modified Eagles Buffered Solution) without or with 25 μM Glucose. In addition, neurons were incubated with or without oxygen (induced by placement of cell plates in an anoxic chamber flushed with a gas mixture to remove oxygen). OGD injury was administered for 1 hour. […] Neuron viability was measured 24 hours post-injury by incubation with CellTiter Blue reagent (PROMEGA) for 3.5 hours. CellTiter Blue is metabolized into a fluorescent reagent only in living cells. The level of fluorescence (expressed as relative fluorescent units; RFU) was measured on a plate reader (PROMEGA).
Primary rat cortical neurons were grown onto 96-well plates. Neurons were injured by a 1 hour treatment with/without 25 μM glucose and with/without oxygen. DMSO or 75 μM AQ2S were added to OGD treatment media during the 1 h ischemic injury period. After 1 hour injury, cells were returned to regular growth media and normoxic culture conditions (i.e. 95% […]/5% CO2) with either DMSO or 75 μM AQ2S. Cell viability was measured 24 hours later and expressed as relative fluorescent units (RFU). […] Data were analyzed by ANOVA (p<0.0001); Fisher LSD post-hoc test. * indicates p<0.05. […]

rats = details: intraperitoneal; cited from earlier work

O=C1c2ccccc2C(=O)c2cc(S(=O)(=O)O)ccc21 [AQ2S, anthraquinone-2-sulfonic acid]
left hippocampal volume (% of uninjured right hippocampus) ([1]; 5 μL 500 μM intracerebroventricular 15 minutes and 24 hours after CCI, 3 days): not significantly (N.S.) different from Sham animals
estimated final tissue AQ2S concentration ([1]; 5 μL of 500 μM icv, extrapolated from total CSF volume in mice (35 μL), unit of the source corrected): ~71 µM
targeting of zinc-finger domain in RBM5 (RBM5; Farina et al. 2011): selective and potent target of the zinc-finger domain in pro-apoptotic RBM5 and inhibits its function
IC50 (RBM5; read-out: IC50 of AQ2S to inhibit RBM5): ~82 µM
heart cell viability after STS [2]: increased viability
superoxide anion (O2^−) levels ([3]; 980 μM, over 60 minute): significantly upregulated superoxide anion (O2^−) levels
toxicity ([3]; 980 μM): lack of toxicity
cell viability ([3]; 5000 μM): 50%
activity of recombinant caspase-3 [4]: significantly reduced the activity of recombinant caspase-3
viability after glutamate injury [5]: significantly protects neurons from glutamate induced cell death
viability after ischemic (OGD) injury [6]: significantly increases viability
Acute LD50 (rats): 730 mg/kg
